Data: PubChem BioAssay AID1963964 (Molecular Pharmacology Branch, DTP, NCI, 2024)

Test system: 997726-040-R-J2-PDC tumor spheroids, viability
Experiment: Anticancer human tumor 997726-040-R-J2-PDC patient-derived squamous cell lung carcinoma cell line growth inhibition [PI3K]
Details: spheroids with HUVEC and MSC; for IC50: curve of first compound; for viability, T/C: stronger effect = lower value
Outline: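 High-throughput combination screen: PI3K inhibitors crossed with targeted small molecules on complex spheroids of tumor cells, HUVEC and MSCs at 37 degrees C, 5% CO2. Top concentration was at or near clinical Cmax (otherwise 10 microM), with half-log decrements.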
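Also: spheroids exposed to compounds for seven days before readout.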

Question: For CNC(=O)c1ccc(N2C(=S)N(c3ccc(C#N)c(C(F)(F)F)c3)C(=O)C2(C)C)cc1F + CC(Nc1ncnc2nc[nH]c12)c1cc2cccc(Cl)c2c(=O)n1-c1ccccc1, which IC50 (second compound 0.0316 µM) is on record?
Answer: > 10 µM

Question: What about the IC50 (second compound 0.1 µM) of the same compound?
Answer: > 10 µM

Question: What about the IC50 (second compound 0.316 µM) of the same compound?
Answer: > 10 µM

Question: What about the IC50 (second compound 1 µM) of the same compound?
Answer: > 10 µM

Question: And the IC50 (second compound 3.16 µM)?
Answer: > 10 µM

Question: And the IC50 (second compound 10 µM)?
Answer: > 10 µM

Question: What about the viability, T/C (second compound 0.0316 µM, first compound 0.0316 µM) of the same compound?
Answer: 88.7%

Question: And the viability, T/C (second compound 0.0316 µM, first compound 0.1 µM)?
Answer: 97.8%

Question: And the viability, T/C (second compound 0.0316 µM, first compound 0.316 µM)?
Answer: 115%

Question: What about the viability, T/C (second compound 0.0316 µM, first compound 1 µM) of the same compound?
Answer: 90.4%

Question: What about the viability, T/C (second compound 0.0316 µM, first compound 3.16 µM) of the same compound?
Answer: 102%

Question: What about the viability, T/C (second compound 0.0316 µM, first compound 10 µM) of the same compound?
Answer: 86.7%

Question: And the viability, T/C (second compound 0.1 µM, first compound 0.0316 µM)?
Answer: 98%

Question: And the viability, T/C (second compound 0.1 µM, first compound 0.1 µM)?
Answer: 93.6%

Question: And the viability, T/C (second compound 0.1 µM, first compound 0.316 µM)?
Answer: 97%

Question: And the viability, T/C (second compound 0.1 µM, first compound 1 µM)?
Answer: 107%

Question: And the viability, T/C (second compound 0.1 µM, first compound 3.16 µM)?
Answer: 104%

Question: What about the viability, T/C (second compound 0.1 µM, first compound 10 µM) of the same compound?
Answer: 92.4%

Question: What about the viability, T/C (second compound 0.316 µM, first compound 0.0316 µM) of the same compound?
Answer: 104%

Question: What about the viability, T/C (second compound 0.316 µM, first compound 0.1 µM) of the same compound?
Answer: 109%

Question: And the viability, T/C (second compound 0.316 µM, first compound 0.316 µM)?
Answer: 101%

Question: What about the viability, T/C (second compound 0.316 µM, first compound 1 µM) of the same compound?
Answer: 99.2%

Question: And the viability, T/C (second compound 0.316 µM, first compound 3.16 µM)?
Answer: 104%

Question: What about the viability, T/C (second compound 0.316 µM, first compound 10 µM) of the same compound?
Answer: 90.2%

Question: And the viability, T/C (second compound 1 µM, first compound 0.0316 µM)?
Answer: 96.7%

Question: And the viability, T/C (second compound 1 µM, first compound 0.1 µM)?
Answer: 86.6%

Question: And the viability, T/C (second compound 1 µM, first compound 0.316 µM)?
Answer: 78.7%

Question: What about the viability, T/C (second compound 1 µM, first compound 1 µM) of the same compound?
Answer: 85%

Question: What about the viability, T/C (second compound 1 µM, first compound 3.16 µM) of the same compound?
Answer: 89%

Question: What about the viability, T/C (second compound 1 µM, first compound 10 µM) of the same compound?
Answer: 86.9%

Question: What about the viability, T/C (second compound 3.16 µM, first compound 0.0316 µM) of the same compound?
Answer: 71%

Question: And the viability, T/C (second compound 3.16 µM, first compound 0.1 µM)?
Answer: 73.8%

Question: And the viability, T/C (second compound 3.16 µM, first compound 0.316 µM)?
Answer: 72.6%

Question: What about the viability, T/C (second compound 3.16 µM, first compound 1 µM) of the same compound?
Answer: 80%

Question: And the viability, T/C (second compound 3.16 µM, first compound 3.16 µM)?
Answer: 80.3%

Question: What about the viability, T/C (second compound 3.16 µM, first compound 10 µM) of the same compound?
Answer: 66.2%

Question: And the viability, T/C (second compound 10 µM, first compound 0.0316 µM)?
Answer: 59.5%

Question: And the viability, T/C (second compound 10 µM, first compound 0.1 µM)?
Answer: 53.9%

Question: And the viability, T/C (second compound 10 µM, first compound 0.316 µM)?
Answer: 50.6%

Question: And the viability, T/C (second compound 10 µM, first compound 1 µM)?
Answer: 48%

Question: And the viability, T/C (second compound 10 µM, first compound 3.16 µM)?
Answer: 54.4%

Question: What about the viability, T/C (second compound 10 µM, first compound 10 µM) of the same compound?
Answer: 50%

Question: Cn1cnc2c(F)c(Nc3ccc(Br)cc3Cl)c(C(=O)NOCCO)cc21 + CC(Nc1ncnc2nc[nH]c12)c1cc2cccc(Cl)c2c(=O)n1-c1ccccc1 was tested. Which IC50 (second compound 0.0316 µM) did it give?
Answer: 0.553 µM

Question: And the IC50 (second compound 0.1 µM)?
Answer: 0.467 µM

Question: What about the IC50 (second compound 0.316 µM) of the same compound?
Answer: 0.319 µM

Question: What about the IC50 (second compound 1 µM) of the same compound?
Answer: 0.574 µM

Question: What about the IC50 (second compound 3.16 µM) of the same compound?
Answer: 0.0601 µM

Question: And the IC50 (second compound 10 µM)?
Answer: < 0.00949 µM

Question: And the viability, T/C (second compound 0.0316 µM, first compound 0.00949 µM)?
Answer: 66.7%

Question: What about the viability, T/C (second compound 0.0316 µM, first compound 0.03 µM) of the same compound?
Answer: 64.8%

Question: And the viability, T/C (second compound 0.0316 µM, first compound 0.0949 µM)?
Answer: 55.7%

Question: What about the viability, T/C (second compound 0.0316 µM, first compound 0.3 µM) of the same compound?
Answer: 54.2%

Question: And the viability, T/C (second compound 0.0316 µM, first compound 0.949 µM)?
Answer: 45.7%

Question: What about the viability, T/C (second compound 0.0316 µM, first compound 3 µM) of the same compound?
Answer: 44.4%

Question: What about the viability, T/C (second compound 0.1 µM, first compound 0.00949 µM) of the same compound?
Answer: 84.3%

Question: What about the viability, T/C (second compound 0.1 µM, first compound 0.03 µM) of the same compound?
Answer: 68.9%

Question: And the viability, T/C (second compound 0.1 µM, first compound 0.0949 µM)?
Answer: 55.1%

Question: And the viability, T/C (second compound 0.1 µM, first compound 0.3 µM)?
Answer: 54.9%

Question: And the viability, T/C (second compound 0.1 µM, first compound 0.949 µM)?
Answer: 49.8%

Question: What about the viability, T/C (second compound 0.1 µM, first compound 3 µM) of the same compound?
Answer: 41.5%

Question: And the viability, T/C (second compound 0.316 µM, first compound 0.00949 µM)?
Answer: 71.5%

Question: And the viability, T/C (second compound 0.316 µM, first compound 0.03 µM)?
Answer: 62.2%

Question: And the viability, T/C (second compound 0.316 µM, first compound 0.0949 µM)?
Answer: 54.1%

Question: And the viability, T/C (second compound 0.316 µM, first compound 0.3 µM)?
Answer: 51.1%

Question: And the viability, T/C (second compound 0.316 µM, first compound 0.949 µM)?
Answer: 49.1%

Question: And the viability, T/C (second compound 0.316 µM, first compound 3 µM)?
Answer: 40.5%

Question: And the viability, T/C (second compound 1 µM, first compound 0.00949 µM)?
Answer: 72%

Question: And the viability, T/C (second compound 1 µM, first compound 0.03 µM)?
Answer: 70.1%

Question: And the viability, T/C (second compound 1 µM, first compound 0.0949 µM)?
Answer: 51.5%

Question: And the viability, T/C (second compound 1 µM, first compound 0.3 µM)?
Answer: 55.8%

Question: What about the viability, T/C (second compound 1 µM, first compound 0.949 µM) of the same compound?
Answer: 49.9%

Question: What about the viability, T/C (second compound 1 µM, first compound 3 µM) of the same compound?
Answer: 42.4%

Question: And the viability, T/C (second compound 3.16 µM, first compound 0.00949 µM)?
Answer: 56.8%

Question: And the viability, T/C (second compound 3.16 µM, first compound 0.03 µM)?
Answer: 56%

Question: And the viability, T/C (second compound 3.16 µM, first compound 0.0949 µM)?
Answer: 46.3%

Question: What about the viability, T/C (second compound 3.16 µM, first compound 0.3 µM) of the same compound?
Answer: 42.4%

Question: And the viability, T/C (second compound 3.16 µM, first compound 0.949 µM)?
Answer: 40.7%

Question: And the viability, T/C (second compound 3.16 µM, first compound 3 µM)?
Answer: 35.2%

Question: And the viability, T/C (second compound 10 µM, first compound 0.00949 µM)?
Answer: 46.1%

Question: And the viability, T/C (second compound 10 µM, first compound 0.03 µM)?
Answer: 38.5%

Question: And the viability, T/C (second compound 10 µM, first compound 0.0949 µM)?
Answer: 32.6%

Question: What about the viability, T/C (second compound 10 µM, first compound 0.3 µM) of the same compound?
Answer: 30.7%

Question: What about the viability, T/C (second compound 10 µM, first compound 0.949 µM) of the same compound?
Answer: 32.6%

Question: What about the viability, T/C (second compound 10 µM, first compound 3 µM) of the same compound?
Answer: 24.7%
